According to US6784309B2, “Method for the purification of N-[N-(3,3-dimethylbutyl)-L-α-aspartyl]-L-phenylalanine 1-methyl ester” (The Nutrasweet Company, priority 1999, dated 2004):

Experiments:
[1] = solubility compared to neotame; format: physicochemical; conditions: relative to neotame; for solubility compared to neotame: crystallization context
[2] = relative to sucrose; cited from earlier work

Row | solubility compared to neotame [1] | Structure (SMILES) | further results
1 | very similar solubilities | COC(=O)[C@H](Cc1ccccc1)NC(=O)[C@H](CC(=O)O)N(CCC(C)(C)C)CCC(C)(C)C [dialkylated aspartame, N,N-di(3,3-dimethylbutyl)-L-aspartyl-L-phenylalanine methyl ester] | 
2 | very similar solubilities | COC(=O)[C@H](Cc1ccccc1)N1C(=O)C(CC(=O)O)N(CCC(C)(C)C)C1CC(C)(C)C (stereo partly drawn) [dialkylated imidazolidinone, α-methyl hydrogen-3-(3,3-dimethylbutyl)-2-L-(2,2-dimethylpropyl)-5-oxo-α-L-(phenylmethyl)-1,4(L)-imidazolidine diacetate] | 
3 | very similar solubilities | COC(=O)C[C@H](NCCC(C)(C)C)C(=O)NC(Cc1ccccc1)C(=O)OC (stereo partly drawn) [methyl ester of α-neotame, methyl ester of N-[N-(3,3-dimethylbutyl)-L-α-aspartyl]-L-phenylalanine 1-methyl ester] | 

Continued, compound first:

Row | Structure (SMILES) | solubility compared to neotame [1] | further results
4 | CC(C)(C)CCN[C@@H](CC(=O)O)C(=O)N[C@@H](Cc1ccccc1)C(=O)O [demethylated α-neotame, N-[N-(3,3-dimethylbutyl)-L-α-aspartyl]-L-phenylalanine] |  | solubility in water compared to neotame ([1]; water): more soluble in water
5 | COC(=O)C(Cc1ccccc1)NC(=O)C(CC(=O)O)NCCC(C)(C)C [neotame, N-[N-(3,3-dimethylbutyl)-L-α-aspartyl]-L-phenylalanine 1-methyl ester] |  | sweetness potency (sweeter than sucrose) [2]: about 8000 X
